Assay results from patent US20250041245A1, “ENDOXIFEN FOR TREATMENT OF CANCERS” (Atossa Therapeutics, Inc., priority 2021, published 2025).
Several values for one entry are separate records, joined by “and”; a condition that tells them apart may be missing. Identical values can stand only once. Entries after “also recorded” stand apart in the source; their conditions may differ.

How the values were obtained:
Type in all cases: cell-based, human
[1] = tested on: patient-derived tumor organoids (PDTOs), cholangiocarcinoma; test: Endoxifen screen in PDTOs: cholangiocarcinoma; parameters: key to Personalization Category: Personalization categories range from High, Good, Moderate, Low, to None; Personalization categories range from High, Good, Moderate, Low, to None; Personalization categories range from High, Good, Moderate, Low, to None; Personalization categories range from High, Good, Moderate, Low, to None; Personalization categories range from High, Good, Moderate, Low, to None; key to Sensitivity Category: Sensitivity categories range from High, Good, Moderate, Low, to None; Sensitivity categories range from High, Good, Moderate, Low, to None; Sensitivity categories range from High, Good, Moderate, Low, to None; Sensitivity categories range from High, Good, Moderate, Low, to None; Sensitivity categories range from High, Good, Moderate, Low, to None; AUC: unit not given beside the values; details: each line one patient sample; for IC50: four-parameter logistic fit
Method: (§1) This example describes screening endoxifen in patient-derived tumor organoids. Endoxifen was tested as a single agent on tumor organoids derived from patients diagnosed with various cancer types using a personalized cancer treatment screening assay (PARIS© Test, SEngine Precision Medicine). The screen utilized patient-derived tumor organoids (PDTOs) along with high-throughput drug screening and machine learning-guided data analysis to quantify the efficacy of endoxifen against samples derived from individual patients diagnosed with various cancer types. PDTOs are self-organizing, three-dimensional organoid structures that recapitulate structural, functional, and genomic aspects of in vivo organs. The PDTOs were grown in culture from patient tumor biopsy samples.
(§2) Fresh patient biopsy samples received following surgery were cleaned and purified. Immune cells (e.g., lymphocytes, blood cells), cancer-associated fibroblasts, and other non-tumor cells were removed to establish pure PDTOs for endoxifen testing. The tumor organoids were grown and expanded by supplying organ- and patient-specific growth factors and nutrients. The PDTOs were treated with increasing concentrations of endoxifen ranging from about 30 nM to about 10 μM, and the drug response was measured using a luminescence readout. A lower luminescence was indicative of a stronger drug response.
(§3) The results were analyzed using a “SEngine Precision Medicine” (SPM) scoring system to assess the sensitivity and personalization of each tumor organoid to endoxifen. The SPM score correlates with clinical outcomes, such that a higher SPM score for a specific PDTO-drug combination predicts a more favorable clinical outcome following treatment of the corresponding patient with the tested drug.
(§4) This example describes testing endoxifen efficacy against 17 distinct cancer types in patient-derived tumor organoids (PDTOs). Screening of PDTOs was performed as described in EXAMPLE 1. For each PDTO sample, the drug response was measured using a luminescent readout over a range of endoxifen concentrations. The drug response was evaluated based on the area under the fitted dose response curve (AUC) and the SPM scoring system. AUC values were normalized for each PDTO. Briefly, data points at each drug concentration were first normalized to a negative control, then a dose response drug curve was approximated using a four-parameter logistic model fitted to the normalized data points. The area under the curve was calculated from the normalized curve. Normalization allowed for comparison of AUC values between patient samples. The SPM scores were based on machine learning models that incorporate values for how well the drug kill patient cells (sensitivity metric), the relative drug responses of a patient to all other patients in a sample database (personalization metric), and knowledge of clinical outcomes for patients that had been evaluated with the personalized cancer screening assay (PARIS® Test, SEngine Precision Medicine).
The SPM scoring system evaluated whether a PDTO was unresponsive or responsive to endoxifen and the degree of drug response for PDTOs that were responsive to endoxifen. The SPM scoring system generated metrics an SPM score, predictive of clinical outcome, overall drug response (response category), drug sensitivity (sensitivity category), and drug personalization (personalization category). SPM scores ranged from 1-15, corresponding to the following drug response categories: no response (SPM 1-8), low response (SPM 9), moderate response (SPM 10-11), good response (SPM 12-13), and exceptional response (SPM 14-15). […] Moderate to good drug responses (SPM 10-13) may indicate that a drug has clinical relevance, possibly in combination with other drugs. The sensitivity category was determined from the sensitivity metric and is a measure of overall cell death of a patient's cells in response to endoxifen at six concentrations. […]

[2] = tested on: patient-derived tumor organoids (PDTOs), endometrial carcinoma; test: Endoxifen screen in PDTOs: endometrial carcinoma; parameters: key to Personalization Category: Personalization categories range from High, Good, Moderate, Low, to None; Personalization categories range from High, Good, Moderate, Low, to None; Personalization categories range from High, Good, Moderate, Low, to None; Personalization categories range from High, Good, Moderate, Low, to None; Personalization categories range from High, Good, Moderate, Low, to None; key to Sensitivity Category: Sensitivity categories range from High, Good, Moderate, Low, to None; Sensitivity categories range from High, Good, Moderate, Low, to None; Sensitivity categories range from High, Good, Moderate, Low, to None; Sensitivity categories range from High, Good, Moderate, Low, to None; Sensitivity categories range from High, Good, Moderate, Low, to None; AUC: unit not given beside the values
Method: as §1, §2
(§5) The results were analyzed using a “SEngine Precision Medicine” (SPM) scoring system to assess the sensitivity and personalization of each tumor organoid to endoxifen. […]
as §4, with “Screening of PDTOs was performed as described in EXAMPLE 1.” left out, “AUC values were normalized for each PDTO. Briefly, data points at each drug concentration were first normalized to a negative control, then a dose response drug curve was approximated using a four-parameter logistic model fitted to the normalized data points.” left out, “Normalization allowed for comparison of AUC values between patient samples.” left out
(§6) The SPM scoring system evaluated whether a PDTO was unresponsive or responsive to endoxifen and the degree of drug response for PDTOs that were responsive to endoxifen. […] The sensitivity category was determined from the sensitivity metric and is a measure of overall cell death of a patient's cells in response to endoxifen at six concentrations. […]

[3] = tested on: patient-derived tumor organoids (PDTOs), sarcoma; test: Endoxifen screen in PDTOs: sarcoma; parameters: key to Personalization Category: Personalization categories range from High, Good, Moderate, Low, to None; Personalization categories range from High, Good, Moderate, Low, to None; Personalization categories range from High, Good, Moderate, Low, to None; Personalization categories range from High, Good, Moderate, Low, to None; Personalization categories range from High, Good, Moderate, Low, to None; AUC: unit not given beside the values
Method: as §1
as §2, with “The tumor organoids were grown and expanded by supplying organ- and patient-specific growth factors and nutrients.” left out
as §5
This example describes testing endoxifen efficacy against 17 distinct cancer types in patient-derived tumor organoids (PDTOs). […] For each PDTO sample, the drug response was measured using a luminescent readout over a range of endoxifen concentrations. The drug response was evaluated based on the area under the fitted dose response curve (AUC) and the SPM scoring system. […] The area under the curve was calculated from the normalized curve. […]
The SPM scoring system evaluated whether a PDTO was unresponsive or responsive to endoxifen and the degree of drug response for PDTOs that were responsive to endoxifen. […]

[4] = tested on: patient-derived tumor organoids (PDTOs), leiomyosarcoma; test: Endoxifen screen in PDTOs: leiomyosarcoma; parameters: key to Personalization Category: Personalization categories range from High, Good, Moderate, Low, to None; Personalization categories range from High, Good, Moderate, Low, to None; Personalization categories range from High, Good, Moderate, Low, to None; Personalization categories range from High, Good, Moderate, Low, to None; Personalization categories range from High, Good, Moderate, Low, to None; key to Sensitivity Category: Sensitivity categories range from High, Good, Moderate, Low, to None; Sensitivity categories range from High, Good, Moderate, Low, to None; Sensitivity categories range from High, Good, Moderate, Low, to None; Sensitivity categories range from High, Good, Moderate, Low, to None; Sensitivity categories range from High, Good, Moderate, Low, to None; AUC: unit not given beside the values; details: each line one patient sample
Method: as §1, §2, §3, §4, §6

[5] = normalized area under fitted dose response curve

**Q.** For `CC/C(=C(\c1ccc(O)cc1)c1ccc(OCCNC)cc1)c1ccccc1` [Endoxifen, 4-hydroxy-N-desmethyltamoxifen], which IC50 ([1]; Homo sapiens) is on record?
**A.** 8.7 µM

**Q.** And the “Personalization Category” value [1]?
**A.** None and Low

**Q.** What about the “Response Category” value [1] of the same molecule?
**A.** None (no response (SPM 1-8)); also recorded: Low (low response (SPM 9))

**Q.** What about the “Sensitivity Category” value [1] of the same molecule?
**A.** None and Low

**Q.** And the IC50 [1]?
**A.** 9.19 µM

**Q.** And the AUC [1, 5]?
**A.** 0.9497 and 0.9011 and 0.9669

**Q.** What about the “SPM Score” value ([1]; score range 1-15) of the same molecule?
**A.** 1 and 9 and 3

**Q.** What about the “Personalization Category” value ([2]; patient 39) of the same molecule?
**A.** None

**Q.** What about the “Sensitivity Category” value ([2]; patient 39) of the same molecule?
**A.** None

**Q.** And the AUC ([2]; patient 39, normalized area under fitted dose response curve)?
**A.** 1.0102

**Q.** And the “SPM Score” value ([2]; patient 39, score range 1-15)?
**A.** 1

**Q.** And the “Personalization Category” value ([3]; patient 21)?
**A.** None

**Q.** And the AUC ([3]; patient 21, normalized area under fitted dose response curve)?
**A.** 0.9995

**Q.** What about the “SPM Score” value ([3]; patient 21, score range 1-15) of the same molecule?
**A.** 1

**Q.** And the “Personalization Category” value [4]?
**A.** None

**Q.** What about the “Response Category” value [4] of the same molecule?
**A.** None (no response (SPM 1-8))

**Q.** What about the “Sensitivity Category” value [4] of the same molecule?
**A.** None

**Q.** What about the AUC [4, 5] of the same molecule?
**A.** 0.9719 and 1.0448 and 1.0001

**Q.** What about the “SPM Score” value ([4]; score range 1-15) of the same molecule?
**A.** 1
